{"source": "patent US20150313228A1", "about": "“SYNERGISTIC HERBICIDAL COMBINATIONS AND METHODS OF USE” (priority 2012, published 2015)", "key": {"velvetleaf": {"tested_on": "velvetleaf", "test": "Post-emergence application in velvetleaf under greenhouse conditions (Example 8)", "assay_type": "in vivo", "from_the_text": "(§1) The following testing protocol was employed to evaluate the post-emergence application of herbicides and herbicide combinations as described in the following examples unless otherwise specified. The weed species to be treated were planted in 3.5 inch pots containing redi-earth potting mix and grown under greenhouse conditions. When the weed species reached a height of about four inches, herbicide was applied at the specified application rate using a track sprayer with a flat even nozzle type, 9501E nozzle size, and spray pressure of 165 kPa. After the application of the herbicide(s), the pots were only sub-irrigated as needed. Throughout the test period, temperature was maintained from about 20° C. to about 30° C. and relative humidity was maintained at about 30%. The plants were rated visually and percentage of weed control was determined for each treatment at 15 to 21 days after herbicide application.\n(§2) Post-emergence application of several herbicides and herbicide combinations was evaluated in velvetleaf under greenhouse conditions. The plants were rated visually and percentage of weed control was determined at 24 days after herbicide application. The herbicides and herbicide combinations evaluated are listed in Table 8-A below together with the corresponding percent control data. The data represent an average value (n=6).\nThe results of the analysis are reported below in Table 8-B (glyphosate+dicamba), Table 8-C(glyphosate+metribuzin), and Table 8-D (dicamba+metribuzin)."}, "Palmer amaranth": {"tested_on": "Palmer amaranth", "test": "Post-emergence application in Palmer amaranth under greenhouse conditions (Example 7)", "assay_type": "in vivo", "settings": "24 days after application", "from_the_text": "as §1\nas §2, with “Palmer amaranth” for “velvetleaf”, “7-A” for “8-A”\nThe results of the analysis are reported below in Table 7-B (glyphosate+dicamba), Table 7-C(glyphosate+metribuzin), and Table 7-D (dicamba+metribuzin)."}}}
{"smiles": "O=C(O)CNCP(=O)(O)O", "note": "[Glyphosate]", "values": [{"measurement": "PERCENT CONTROL (ACTUAL)", "setting": "velvetleaf; 560 g/ha, 24 days after application", "result": 81.0, "unit": "%"}, {"measurement": "PERCENT CONTROL (ACTUAL)", "setting": "velvetleaf; 1120 g/ha, 24 days after application", "result": 100.0, "unit": "%"}, {"measurement": "PERCENT CONTROL (ACTUAL)", "setting": "velvetleaf; Table 8-C, velvetleaf, 24 days, dose 560 g/ha", "result": 81.0, "unit": "%"}, {"measurement": "PERCENT CONTROL (ACTUAL)", "setting": "velvetleaf; Table 8-C, velvetleaf, 24 days, dose 1120 g/ha", "result": 100.0, "unit": "%"}, {"measurement": "PERCENT CONTROL", "setting": "Palmer amaranth; 560 g/ha", "result": 20.0, "unit": "%"}, {"measurement": "PERCENT CONTROL", "setting": "Palmer amaranth; 1120 g/ha", "result": 50.0, "unit": "%"}]}
